{
  "source": "patent US12178882B2",
  "about": "“Alpha polyglutamated pemetrexed and uses thereof” (L.E.A.F. HOLDINGS GROUP LLC, priority 2016, dated 2024)",
  "key": {"AML12 liver cells": {"test_system": "AML12 liver cells", "test": "Toxicity to AML12 liver cells", "format": "cell-based", "details": "all doses studied (16-128 nM), 48 hours, FIG. 16", "source_text": "(§1) Methodologies used for cell line AML12 (non-cancerous liver cells) and CCD841 (non-cancerous colon epithelial cells) are similar to the methods used for cancer cells."}, "[1]": {"test_system": "CCD841 colon epithelium cells", "test": "Toxicity to CCD841 colon epithelium cells", "format": "cell-based", "details": "all concentrations tested (16-128 nM), 48 hours, FIG. 17", "source_text": "as §1"}, "[2]": {"target": "T1, reduced folate carriers (RFCs) (Homo sapiens, UniProt P41440)", "T1 sequence (P41440 1-591)": "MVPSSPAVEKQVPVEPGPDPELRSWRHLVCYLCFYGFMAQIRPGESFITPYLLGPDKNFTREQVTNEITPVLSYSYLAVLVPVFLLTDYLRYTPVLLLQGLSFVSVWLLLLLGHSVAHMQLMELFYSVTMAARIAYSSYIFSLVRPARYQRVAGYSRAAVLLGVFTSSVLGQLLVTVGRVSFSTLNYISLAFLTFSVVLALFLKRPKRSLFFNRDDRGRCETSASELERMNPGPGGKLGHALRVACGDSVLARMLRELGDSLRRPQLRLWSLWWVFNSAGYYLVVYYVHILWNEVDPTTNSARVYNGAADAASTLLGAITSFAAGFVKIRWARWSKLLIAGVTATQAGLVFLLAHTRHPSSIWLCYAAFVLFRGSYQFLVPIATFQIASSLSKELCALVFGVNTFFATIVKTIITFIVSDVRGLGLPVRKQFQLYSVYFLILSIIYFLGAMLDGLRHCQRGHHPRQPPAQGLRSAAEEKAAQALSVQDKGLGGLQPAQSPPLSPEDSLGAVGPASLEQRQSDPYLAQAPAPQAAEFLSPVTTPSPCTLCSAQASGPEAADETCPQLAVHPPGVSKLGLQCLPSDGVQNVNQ", "details": "higher than MTX; cited from earlier work"}},
  "data": [
    {"compound": "Nc1nc2[nH]cc(CCc3ccc(C(=O)N[C@@H](CCC(=O)O)C(=O)O)cc3)c2c(=O)[nH]1", "note": "[pemetrexed]", "values": [
      {"measurement": "Reduction in the AML12 liver cell counts", "setting": "AML12 liver cells", "result": "approximately 40%"},
      {"measurement": "Decrease in the number of CCD841 colon epithelium cells", "setting": "[1]", "result": "≥ 50", "unit": "%"},
      {"measurement": "Affinity of RFCs for PMX relative to that for MTX", "setting": "[2]", "result": 2, "unit": "fold"}
    ]}
  ]
}
